Results on 6 compounds are retold here after US20250222008A1, “EYEDROPS CONTAINING AN ALPHA1-BLOCKER FOR INHIBITING MYOPIA PROGRESSION” (TSUBOTA LABORATORY, INC., priority 2022, published 2025).

Data set [1] has as its system mouse myopic models (−30D lens on right eye, 0D lens on left eye). Briefly: Refractive power measurement in lens-induced myopia mice (infrared photorefractor). The data set is classed as in vivo, mice (C57BL6/J). Here is the method: (§1) During the myopia induction period, eyedrops were administered once per day. Phosphate buffered saline (PBS) eyedrops were classified as a control group (Control), and α1-blocker eyedrops were classified as test groups.
(§2) The refractive index and the axial length of the mouse eyeball after three weeks were measured and the amounts of change were calculated. The refractive values were measured by using an infrared photorefractor for mice (fabricated by Prof Schaeffel of University of Tubingen). The more negative the refractive index, the more severe the myopia. The axial lengths were measured by using spectral domain optical coherence tomography (Envisu R4310, manufactured by Leica). The greater the value of the axial length, the greater the severity of myopia.
(§3) The eyedrops were administered once per day for the three weeks of the myopia induction period.
(§4) α1-blocker eyedrops having concentrations (mg of α1-blocker salt contained in 1 mL: mg/mL) of 0.001 (mg/mL), 0.01 (mg/mL), and 0.1 (mg/mL) were used as the eyedrops. The eyedrops were administered once per day for the three weeks of the myopia induction period. The control group was used with PBS eyedrops not containing an α1-blocker, and the α1-blocker eyedrops were eyedrops obtained by containing bunazosin hydrochloride at the predetermined concentrations.
(§5) The PBS (control group), bunazosin eyedrops (bunazosin of 0.01%, bunazosin hydrochloride of 0.01 mg/mL), silodosin eyedrops (silodosin of 0.01%, silodosin of 0.01 mg/mL), and tamsulosin eyedrops (tamsulosin of 0.01%, tamsulosin hydrochloride of 0.01 mg/mL) were used as the eyedrops. The eyedrops were administered once per day for the three weeks of the myopia induction period, as in Experiments 1 and 2. For the control group as well, PBS eyedrops not containing an α1-blocker were used, as in Experiments 1 and 2.

For data set [2] the test system is unchanged. Briefly: Axial length measurement in lens-induced myopia mice (spectral domain optical coherence tomography). The data set is classed as in vivo, mice (C57BL6/J). As to conditions: for myopia progression judged by axial length difference −30D vs 0D eyes: eyedrops 0.1 mg/mL once per day; for axial myopia progression judged by axial length difference −30D vs 0D eyes: Experiment 3, eyedrops 0.01% (0.01 mg/mL) once per day. Here is the method: as §1, §2, §3, §4, §5

The conditions of data set [3]: cited from earlier work.
Setting [4] is: Experiment 1, eyedrops 0.1 mg/mL once per day for three weeks of myopia induction, amount of change.
The mark [5] stands for this setting: Experiment 1, eyedrops 0.1 mg/mL once per day for three weeks, amount of change.
[6] abbreviates: Experiment 1, eyedrops 0.1 mg/mL once per day, three weeks.
Setting [7] is: Experiment 2, concentration 0.001 mg/mL.
The mark [8] stands for this setting: Experiment 2, concentration 0.001 mg/mL, once per day, three weeks.
[9] abbreviates: Experiment 2, concentration 0.01 mg/mL.
Where [10] appears, read: Experiment 2, concentration 0.01 mg/mL, once per day, three weeks.
[11] abbreviates: Experiment 2, concentration 0.1 mg/mL.
The mark [12] stands for this setting: Experiment 2, concentration 0.1 mg/mL, once per day, three weeks.
The mark [13] stands for this setting: Experiment 3, eyedrops 0.01% (0.01 mg/mL) once per day, three weeks.

Structures can show the parent of a compound that is named as a salt.

Regarding `CCCC(=O)N1CCCN(c2nc(N)c3cc(OC)c(OC)cc3n2)CC1` [bunazosin], the “refractive power, eyes with the −30D lens” value in data set [1] (setting [4]) is recorded as −0.74±4.07 D; in data set [1] (setting [8]), −10.90±4.13 D; in data set [1] (setting [10]), −6.92±4.08 D; in data set [1] (setting [12]) it was −1.26±3.28 D. The “refractive power, eyes with the 0D lens” value in data set [1] (setting [5]) is on record as 3.65±4.72 D; in data set [1] (setting [8]), −0.33±3.47 D; in data set [1] (setting [10]), −0.83±3.20 D; in data set [1] (setting [12]), 3.19±3.76 D. Moreover, the “myopia progression judged by refractive power difference −30D vs 0D eyes” value in data set [1] (setting [6]) and in data set [1] (setting [13]) was “progression of myopia was suppressed” each time. Besides, the “myopia progression judged by refractive power” value in data set [1] (setting [7]) is listed as “a sufficient myopia progression suppressing effect was not obtained”; in data set [1] (setting [9]) it was “progression of myopia was suppressed”; in data set [1] (setting [11]) it was “progression of myopia was suppressed”. Moreover, the “axial length, eyes with the 0D lens” value is listed as 0.187±0.019 mm in data set [2] (setting [5]), 0.196±0.008 mm in data set [2] (setting [8]), 0.192±0.021 mm in data set [2] (setting [10]) and 0.180±0.028 mm in data set [2] (setting [12]). Moreover, the “axial length, eyes with the −30D lens” value came to 0.191±0.026 mm in data set [2] (setting [5]), 0.228±0.017 mm in data set [2] (setting [8]), 0.209±0.024 mm in data set [2] (setting [10]) and 0.189±0.024 mm in data set [2] (setting [12]). Moreover, in data set [2] (Experiment 1, three weeks), the “myopia progression judged by axial length difference −30D vs 0D eyes” value is listed as “progression of myopia was suppressed”. Moreover, the “myopia progression judged by axial length” value is “showed an elongation in axial length” in data set [2] (setting [7]), “progression of myopia was suppressed” in data set [2] (setting [9]) and “progression of myopia was suppressed” in data set [2] (setting [11]). The “axial myopia progression judged by axial length difference −30D vs 0D eyes” value in data set [2] (three weeks) is “progression of axial myopia was suppressed”.

As for `COc1cc2nc(N3CCN(C(=O)C4COc5ccccc5O4)CC3)nc(N)c2cc1OC` (stereo not drawn) [doxazosin hydrochloride], the “solubility with respect to water” value in data set [3] is “approximately 5 mg/mL”.

Turning to `COc1cc2nc(N3CCN(C(=O)c4ccco4)CC3)nc(N)c2cc1OC` [prazosin], the “solubility with respect to water” value in data set [3] is on record as 1.4 mg/mL.

Take `C[C@H](Cc1cc2c(c(C(N)=O)c1)N(CCCO)CC2)NCCOc1ccccc1OCC(F)(F)F` [silodosin]: the “myopia progression judged by refractive power difference −30D vs 0D eyes” value in data set [1] (setting [13]) is recorded as “progression of myopia was suppressed”. Besides, in data set [2] (three weeks), the “axial myopia progression judged by axial length difference −30D vs 0D eyes” value is listed as “progression of axial myopia was suppressed”.

Consider `CCOc1ccccc1OCCN[C@H](C)Cc1ccc(OC)c(S(N)(=O)=O)c1` [tamsulosin], for which the “myopia progression judged by refractive power difference −30D vs 0D eyes” value in data set [1] (setting [13]) is reported as “progression of myopia was suppressed”. Moreover, the “axial myopia progression judged by axial length difference −30D vs 0D eyes” value in data set [2] (three weeks) is listed as “progression of axial myopia was suppressed”.

For `COc1ccccc1N1CCN(CCCNc2cc(=O)n(C)c(=O)n2C)CC1` [urapidil], the “refractive power, eyes with the −30D lens” value in data set [1] (setting [4]) is −5.51±6.29 D. The “refractive power, eyes with the 0D lens” value in data set [1] (setting [5]) was 0.33±7.07 D. For the same compound, the “myopia progression judged by refractive power difference −30D vs 0D eyes” value in data set [1] (setting [6]) is on record as “progression of myopia was suppressed”. In data set [2] (setting [5]), the “axial length, eyes with the 0D lens” value stood at 0.217±0.014 mm and the “axial length, eyes with the −30D lens” value came to 0.233±0.020 mm. For the same compound, in data set [2] (Experiment 1, three weeks), the “myopia progression judged by axial length difference −30D vs 0D eyes” value is “progression of myopia was suppressed”. Also, the “solubility with respect to water” value in data set [3] is 25 mg/mL.
